Values of other authors in patent US20190275270A1, “SYSTEM AND METHOD FOR ARRESTING DEBILITATING MIGRAINE EVENTS” (priority 2018, published 2019).

Legend:
CB1 [1] = molecular target: T1, CB1 (Homo sapiens, UniProt P21554)
CB2 [2] = molecular target: T2, CB2 (Homo sapiens, UniProt P34972)
CB2 [3] = molecular target: T2, CB2; remark: listed apart in the source
CB1 [4] = molecular target: T1, CB1; remark: listed apart in the source
[5] = system: nitric oxide (NO) production; conditions: read-out: inhibits NO production, IC50
migraine incidences = conditions: used in a preventative context

T2 sequence (P34972 whole entry, species assumed): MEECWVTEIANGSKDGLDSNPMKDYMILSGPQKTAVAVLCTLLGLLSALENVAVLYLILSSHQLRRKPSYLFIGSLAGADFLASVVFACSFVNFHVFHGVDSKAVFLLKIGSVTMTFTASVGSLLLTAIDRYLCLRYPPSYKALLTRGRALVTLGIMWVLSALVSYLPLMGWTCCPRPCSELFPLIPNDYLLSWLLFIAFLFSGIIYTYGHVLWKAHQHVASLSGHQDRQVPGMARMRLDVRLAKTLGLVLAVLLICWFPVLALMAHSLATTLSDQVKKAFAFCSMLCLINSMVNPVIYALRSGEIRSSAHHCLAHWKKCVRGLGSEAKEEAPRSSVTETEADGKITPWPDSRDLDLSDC
T1 sequence (P21554 whole entry, species assumed): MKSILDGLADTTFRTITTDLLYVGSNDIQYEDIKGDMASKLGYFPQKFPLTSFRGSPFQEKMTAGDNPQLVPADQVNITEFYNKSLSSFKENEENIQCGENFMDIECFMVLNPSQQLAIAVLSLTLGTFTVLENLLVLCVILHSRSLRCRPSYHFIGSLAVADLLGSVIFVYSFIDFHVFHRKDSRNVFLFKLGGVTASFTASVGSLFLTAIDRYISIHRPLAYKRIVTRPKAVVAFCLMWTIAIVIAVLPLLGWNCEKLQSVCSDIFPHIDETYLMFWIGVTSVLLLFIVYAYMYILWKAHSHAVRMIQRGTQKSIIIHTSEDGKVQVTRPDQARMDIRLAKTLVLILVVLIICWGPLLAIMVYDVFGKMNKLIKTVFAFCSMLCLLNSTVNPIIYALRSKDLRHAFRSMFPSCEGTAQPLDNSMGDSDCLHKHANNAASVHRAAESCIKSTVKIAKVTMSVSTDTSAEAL

| Compound | binding to CB1 (CB1 [1]) | binding to CB2 (CB2 [2]) | activity at CB2 (CB2 [3]) | further results |
| --- | --- | --- | --- | --- |
| CCCCCCC[C@@H](C/C=C/CCC(=O)N(C)C/C(=C/Cl)C/C(=C\C(=O)N1CC(O)CC1=O)OC)OC (stereo partly drawn) [Malyngamide B] | moderate potencies | moderate potencies |  |  |
| C=CCc1ccc(O)c(-c2ccc(O)c(CC=C)c2)c1 [honokiol] |  |  | antagonistic properties | activity at CB1 (CB1 [4]): full agonistic activity |
| caryophyllene | binds | binds |  |  |
| C=CCc1ccc(O)c(-c2cc(CC=C)ccc2O)c1 [Magnolol] |  |  | partial agonist | IC50 [5]: ~6.2 µM |
| C=C(C)[C@@H]1CCC(C)=C[C@H]1c1c(O)cc(CCCCC)cc1O [CBD, cannabidiol] |  |  |  | cut in migraine incidences (migraine incidences): more than 50% |
